US9803164B2, “Megakaryocyte and platelet production from stem cells” (priority 2011, dated 2017)
Residues, ends and D or L forms follow the SMILES beside them. *: point of attachment. Cbz = O=C(OCc1ccccc1)*; CH2F = FC*

Assays:
Format in all cases: cell-based
[1] = test system: platelets collected from the bioreactor; experiment: Platelet surface expression of P-selectin after activation, flow cytometry; settings: PMA 10 μg/mL, 15 min, room temperature; 25% at baseline
Protocol: Platelets collected from the bioreactor were tested for their function based on the externalization of P-Selectin after activation with phorbol myristate acetate (PMA) using flow cytometry. Platelets were collected in eppendorf tubes, labeled with Alexa 647-conjugated anti-CD41 antibody, PE-conjugated anti-CD-62P (Becton Dickinson) and a live cell stain, Calcein AM (Sigma-Aldrich) for 15 min at room temperature. Next, platelets were activated using PMA (Sigma Aldrich) 10 μg/mL for 15 min at room temperature. Cells were then analyzed by flow cytometry for P-Selectin externalization. Anti-Y1-PE (Becton Dickinson) was used as an isotype control.

UCB derived CD34 cells = experiment: Expansion of UCB derived CD34 enriched cells in serum-free suspension culture with reagents; settings: control mean 40-fold, n=3; for CD34 fold expansion (mean): day 7 of culture, SR-1 0.75 μM, TEPA 5 μM, zVADfmk 100 nM, SCF, TPO, FLT3-ligand 50 ng/ml
Protocol: Umbilical cord blood units not suitable for clinical use were obtained from the New York Blood Center National Cord Blood Bank, where they were collected after informed consent in accord with the Declaration of Helsinki. Isolation of umbilical cord blood CD34 cells was performed using either a positive selection or a negative selection method. The positive selection method used has been described in G. Mattia et al., Different ploidy levels of megakaryocytes generated from peripheral or cord blood CD34+ cells are correlated with different levels of platelet release, 99(3) BLOOD 888 (February 2002). Briefly, mononuclear cells were layered on a Ficoll-Hypaque gradient (GE Healthcare, Barrington, Ill.), washed twice with phosphate-buffered saline (PBS) (Life Technologies) supplemented with 5% fetal bovine serum (FBS) (Life Technologies). To purify CD34 cells, the mononuclear selection fraction was subject to two cycles of immunomagnetic bead separation using a MINIMACS CD34 isolation kit (Miltenyi Biotech, Auburn, Calif.), according to manufacturer's recommendations. The purity of the sample ranged from 70% to 90% CD34 positive and was approximately 30% CD41 positive based on flow cytometry analysis.
The negative selection method was based on previously described methods where umbilical cord blood-derived CD34 cells were enriched by a negative selection method with the use of ROSETTESEP (Stem Cell Technologies, Vancouver, Canada). M. P. Avanzi et al., Optimizing megakaryocyte polyploidization by targeting multiple pathways of cytokinesis, 52(11) TRANSFUSION 2406 (November 2012). Briefly, cells were washed with phosphate buffered saline (PBS, Life Technologies) and incubated with ROSETTESEP reagent for 10 min at room temperature. Next, cells were layered on a Ficoll-Hypaque gradient, washed twice with phosphate-buffered saline. The final product was approximately 20% to 30% CD34 positive and 30% CD41 positive.
UCB derived CD34 enriched cells were plated at a density of 1×10^4 per well (24 well plate) in suspension culture and combined with one of the following reagents: STEM REGENIN-1 (StemCell Technologies, Vancouver, BC), 0.75 μM; copper chelator tetraethylenepentamine, 5 μM (TEPA) (Sigma Aldrich, St Louis, Mo.); or zVADfmk, 100 nM (Abcam, Cambridge, Mass.). Reagents were added with culture medium and cytokine cocktail on day 0, 4, 7 and 10 of culture. Additionally, in separate experiments, CD34 enriched cells were expanded on NANEX nanofiber membranes (Arteriocyte, Cleveland Ohio). […]
All flow cytometry experiments where performed with a BD FACS LSR FORTESSA machine (Becton Dickinson, San Jose, Calif.) and analyzed with BD FACSDIVA software (Becton Dickinson). […] Labeled cells were then analyzed and counted.

[2] = test system: megakaryocytes (CD41 cells); experiment: Megakaryocyte ploidy by flow cytometry after induction of polyploidization; settings: day 11; treated once on day 8; latrunculin 10 μg/ml or Y27632 10 μM; controls less than 10%; p=0.007, n=3
Protocol: (§1) At the completion of the megakaryocyte differentiation stage on day 8, megakaryocytes were stimulated to undergo polyploidization by adding either the actin polymerization inhibitor, latrunculin (Santa Cruz Biotechnologies, Dallas, Tex.), at a final concentration of 10 μg/ml, or the Rho-kinase inhibitor, Y27632 (Sigma Aldrich, St. Louis, Mo.), at 10 μM, and then culturing the cells for an additional 3 or 4 days.
Megakaryocyte ploidy was analyzed on day 11 of culture. Cells were labeled with Alexa 647-conjugated anti-CD41 antibody, incubated for 20 min on ice, fixed with 4% paraformaldehyde (Fisher Scientific) for 15 minutes and then washed with PBS. Next, cells were permeabilized with methanol 75% (Sigma Aldrich) for 1 hour at 4° C. and washed with PBS+BSA, 2%+NP40, 0.05% (Fischer Scientific) solution. Finally cells were treated with Propidium Iodide/RNase solution (Becton Dickinson) and incubated for 30 minutes in the dark at room temperature before flow cytometry analysis.

megakaryocytes = experiment: Proplatelet formation quantification (grid strategy); settings: day 11; treated on day 8; p=0.02, n=3
Protocol: as §1
Proplatelet formation was quantified on day 11 of culture using a grid strategy, as previously described by M. P. Avanzi et al., Rho kinase inhibition drives megakaryocyte polyploidization and proplatelet formation through MYC and NFE2 downregulation, 164(6) BR. J HAEMATOL. 867 (March 2014). Briefly, using an inverted light microscope (Olympus CKX41) 10 random-field images were acquired at 40× magnification from each well. All megakaryocytes present on each field were counted. A counting grid with 25 μm squares was used to enumerate the number of proplatelet processes. Each proplatelet segment inside each square was counted and the sum of all segments in 10 random field images (40× magnification) was used for comparison. From these numbers, a measure of proplatelet density per cell per unit area was generated and used to compare the results of different culture conditions.

## CCCCCCCCCCCCCC(=O)O[C@@H]1[C@@H](C)[C@@]2(O)[C@@H](C=C(CO)C[C@]3(O)C(=O)C(C)=C[C@@H]23)[C@@H]2C(C)(C)[C@]12OC(C)=O [PMA, phorbol 12-myristate 13-acetate]
[1]
  Particles expressing p-selectin after stimulation: 65%

## CC(C)n1cnc2c(NCCc3ccc(O)cc3)nc(-c3csc4ccccc34)nc21 [SR-1, stem regenin-1]
UCB derived CD34 cells; day 7
  CD34 fold expansion versus control culture (significance): not significantly different
UCB derived CD34 cells
  CD34 fold expansion (mean): 85 fold

## NCCNCCNCCNCCN [TEPA, tetraethylenepentamine]
UCB derived CD34 cells
  CD34 fold expansion (mean): 19 fold

## C[C@@H](N)[C@H]1CC[C@H](C(=O)Nc2ccncc2)CC1 [Y27632]
[2]
  Proportion of megakaryocytes with ploidy >8: 30%
megakaryocytes
  Proplatelets generated compared with control megakaryocytes: significantly more

## COC(=O)CC(NC(=O)C(C)NC(=O)C(NC(=O)OCc1ccccc1)C(C)C)C(=O)CF (stereo not drawn) [zVADfmk, benzyloxycarbonyl-Val-Ala-Asp (OMe) fluoromethylketone] (Cbz-Val-Ala-Asp(OMe)-CH2F; configuration not given here)
UCB derived CD34 cells
  CD34 fold expansion (mean): 25 fold

## latrunculin
[2]
  Proportion of megakaryocytes with ploidy >8: 30%
megakaryocytes
  Proplatelets generated compared with control megakaryocytes: significantly more
